# Measurements: ChEMBL document CHEMBL1201862, “PubChem BioAssay data set” (2004)
# The source made the active and inactive calls.
# How the values were obtained:
# Assay type in all cases: functional
# [1] = target: T1, Replicative DNA helicase DnaB (Mycobacterium tuberculosis, UniProt P9WMR3); assay: DnaB intein splicing inhibitors, dose response, biochemical, cell-free fluorescence (AID 449749)
# T1 sequence (P9WMR3 whole entry): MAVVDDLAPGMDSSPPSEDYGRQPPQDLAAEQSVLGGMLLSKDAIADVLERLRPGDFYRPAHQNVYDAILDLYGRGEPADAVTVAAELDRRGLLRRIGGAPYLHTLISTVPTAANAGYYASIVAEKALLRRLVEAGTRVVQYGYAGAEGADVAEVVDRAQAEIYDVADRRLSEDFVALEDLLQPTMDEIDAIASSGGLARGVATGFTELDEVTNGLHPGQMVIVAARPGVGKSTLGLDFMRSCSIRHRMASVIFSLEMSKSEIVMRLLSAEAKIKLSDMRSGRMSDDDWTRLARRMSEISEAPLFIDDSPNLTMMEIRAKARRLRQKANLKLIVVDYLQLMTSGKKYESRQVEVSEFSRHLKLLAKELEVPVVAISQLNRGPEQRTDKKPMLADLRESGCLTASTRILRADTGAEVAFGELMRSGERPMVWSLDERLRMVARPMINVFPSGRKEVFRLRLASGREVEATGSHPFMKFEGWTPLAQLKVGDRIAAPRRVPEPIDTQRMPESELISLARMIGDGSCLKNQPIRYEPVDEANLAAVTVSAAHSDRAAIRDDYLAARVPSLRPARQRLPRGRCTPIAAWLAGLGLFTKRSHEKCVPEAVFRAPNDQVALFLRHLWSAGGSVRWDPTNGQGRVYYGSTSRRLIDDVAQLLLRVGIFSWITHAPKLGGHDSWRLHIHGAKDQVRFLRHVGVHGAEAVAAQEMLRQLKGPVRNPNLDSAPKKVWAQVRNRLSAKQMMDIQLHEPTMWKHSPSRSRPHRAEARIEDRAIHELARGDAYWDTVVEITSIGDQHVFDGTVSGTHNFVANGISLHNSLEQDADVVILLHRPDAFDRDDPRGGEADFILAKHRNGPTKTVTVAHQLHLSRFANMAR
# [2] = growth suppression of beta-catenin-knockout colon cells, dose response, cell-based, HCT116, human colon tumor (AID 1045);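 further: HCT116 colon tumor cells with beta catenin knocked out; cells exposed to compound for 60 hours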
# Protein RecA = target: T2, Protein RecA (Mycobacterium tuberculosis, UniProt P9WHJ3); assay: Fluorescence Cell-Free Homogeneous Dose Retest to Identify Inhibitors of RecA-Intein Splicing Activity. [Related pubchem assays (depositor defined):AID2097, AID2223, AID489010, AID492950]
# T2 sequence (P9WHJ3 whole entry): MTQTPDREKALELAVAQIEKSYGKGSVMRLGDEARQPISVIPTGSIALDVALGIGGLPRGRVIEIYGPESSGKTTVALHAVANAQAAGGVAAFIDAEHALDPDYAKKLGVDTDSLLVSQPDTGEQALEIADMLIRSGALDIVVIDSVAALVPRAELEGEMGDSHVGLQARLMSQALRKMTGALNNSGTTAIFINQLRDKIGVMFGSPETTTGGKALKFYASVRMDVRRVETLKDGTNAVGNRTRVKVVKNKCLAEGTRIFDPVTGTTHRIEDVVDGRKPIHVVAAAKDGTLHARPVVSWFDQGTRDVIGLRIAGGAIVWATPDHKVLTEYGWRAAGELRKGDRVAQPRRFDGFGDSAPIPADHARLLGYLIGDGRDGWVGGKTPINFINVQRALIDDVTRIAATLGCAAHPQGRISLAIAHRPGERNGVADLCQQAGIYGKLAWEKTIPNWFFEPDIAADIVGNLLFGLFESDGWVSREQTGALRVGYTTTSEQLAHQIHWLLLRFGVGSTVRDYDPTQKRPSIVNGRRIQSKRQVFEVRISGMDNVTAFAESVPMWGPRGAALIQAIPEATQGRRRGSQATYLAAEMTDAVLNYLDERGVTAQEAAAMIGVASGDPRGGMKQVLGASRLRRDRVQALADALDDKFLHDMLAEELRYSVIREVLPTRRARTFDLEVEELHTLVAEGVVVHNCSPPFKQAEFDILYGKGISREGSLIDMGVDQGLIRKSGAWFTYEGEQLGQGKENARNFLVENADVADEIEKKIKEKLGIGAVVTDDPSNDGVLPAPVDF
# [3] = HEp-2 cell cytotoxicity, dose response, cytotoxicity control for RSV inhibitor project, HTS (AID 2410); conditions: human respiratory syncytial virus
# [4] = growth suppression of PTEN-null colon cells, dose response, cell-based, HCT116 PTEN knockout (AID 1047);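 further: HCT116 colon tumor cells with PTEN knocked out; cells exposed to compound for 60 hours before readout; potency for loss of cell viability measured by luminescence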
# Fatty acid synthase [5] = target: T3, Fatty acid synthase (Homo sapiens, UniProt P49327); assay: FAS thioesterase domain inhibitors, dose response, biochemical, endpoint fluorescence intensity, uHTS hits (AID 624327);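 further: fluorescence from hydrolysis of an O-methyl fluorescein acyl ester substrate by the enzyme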
# T3 sequence (P49327 whole entry, the tested form may be a part): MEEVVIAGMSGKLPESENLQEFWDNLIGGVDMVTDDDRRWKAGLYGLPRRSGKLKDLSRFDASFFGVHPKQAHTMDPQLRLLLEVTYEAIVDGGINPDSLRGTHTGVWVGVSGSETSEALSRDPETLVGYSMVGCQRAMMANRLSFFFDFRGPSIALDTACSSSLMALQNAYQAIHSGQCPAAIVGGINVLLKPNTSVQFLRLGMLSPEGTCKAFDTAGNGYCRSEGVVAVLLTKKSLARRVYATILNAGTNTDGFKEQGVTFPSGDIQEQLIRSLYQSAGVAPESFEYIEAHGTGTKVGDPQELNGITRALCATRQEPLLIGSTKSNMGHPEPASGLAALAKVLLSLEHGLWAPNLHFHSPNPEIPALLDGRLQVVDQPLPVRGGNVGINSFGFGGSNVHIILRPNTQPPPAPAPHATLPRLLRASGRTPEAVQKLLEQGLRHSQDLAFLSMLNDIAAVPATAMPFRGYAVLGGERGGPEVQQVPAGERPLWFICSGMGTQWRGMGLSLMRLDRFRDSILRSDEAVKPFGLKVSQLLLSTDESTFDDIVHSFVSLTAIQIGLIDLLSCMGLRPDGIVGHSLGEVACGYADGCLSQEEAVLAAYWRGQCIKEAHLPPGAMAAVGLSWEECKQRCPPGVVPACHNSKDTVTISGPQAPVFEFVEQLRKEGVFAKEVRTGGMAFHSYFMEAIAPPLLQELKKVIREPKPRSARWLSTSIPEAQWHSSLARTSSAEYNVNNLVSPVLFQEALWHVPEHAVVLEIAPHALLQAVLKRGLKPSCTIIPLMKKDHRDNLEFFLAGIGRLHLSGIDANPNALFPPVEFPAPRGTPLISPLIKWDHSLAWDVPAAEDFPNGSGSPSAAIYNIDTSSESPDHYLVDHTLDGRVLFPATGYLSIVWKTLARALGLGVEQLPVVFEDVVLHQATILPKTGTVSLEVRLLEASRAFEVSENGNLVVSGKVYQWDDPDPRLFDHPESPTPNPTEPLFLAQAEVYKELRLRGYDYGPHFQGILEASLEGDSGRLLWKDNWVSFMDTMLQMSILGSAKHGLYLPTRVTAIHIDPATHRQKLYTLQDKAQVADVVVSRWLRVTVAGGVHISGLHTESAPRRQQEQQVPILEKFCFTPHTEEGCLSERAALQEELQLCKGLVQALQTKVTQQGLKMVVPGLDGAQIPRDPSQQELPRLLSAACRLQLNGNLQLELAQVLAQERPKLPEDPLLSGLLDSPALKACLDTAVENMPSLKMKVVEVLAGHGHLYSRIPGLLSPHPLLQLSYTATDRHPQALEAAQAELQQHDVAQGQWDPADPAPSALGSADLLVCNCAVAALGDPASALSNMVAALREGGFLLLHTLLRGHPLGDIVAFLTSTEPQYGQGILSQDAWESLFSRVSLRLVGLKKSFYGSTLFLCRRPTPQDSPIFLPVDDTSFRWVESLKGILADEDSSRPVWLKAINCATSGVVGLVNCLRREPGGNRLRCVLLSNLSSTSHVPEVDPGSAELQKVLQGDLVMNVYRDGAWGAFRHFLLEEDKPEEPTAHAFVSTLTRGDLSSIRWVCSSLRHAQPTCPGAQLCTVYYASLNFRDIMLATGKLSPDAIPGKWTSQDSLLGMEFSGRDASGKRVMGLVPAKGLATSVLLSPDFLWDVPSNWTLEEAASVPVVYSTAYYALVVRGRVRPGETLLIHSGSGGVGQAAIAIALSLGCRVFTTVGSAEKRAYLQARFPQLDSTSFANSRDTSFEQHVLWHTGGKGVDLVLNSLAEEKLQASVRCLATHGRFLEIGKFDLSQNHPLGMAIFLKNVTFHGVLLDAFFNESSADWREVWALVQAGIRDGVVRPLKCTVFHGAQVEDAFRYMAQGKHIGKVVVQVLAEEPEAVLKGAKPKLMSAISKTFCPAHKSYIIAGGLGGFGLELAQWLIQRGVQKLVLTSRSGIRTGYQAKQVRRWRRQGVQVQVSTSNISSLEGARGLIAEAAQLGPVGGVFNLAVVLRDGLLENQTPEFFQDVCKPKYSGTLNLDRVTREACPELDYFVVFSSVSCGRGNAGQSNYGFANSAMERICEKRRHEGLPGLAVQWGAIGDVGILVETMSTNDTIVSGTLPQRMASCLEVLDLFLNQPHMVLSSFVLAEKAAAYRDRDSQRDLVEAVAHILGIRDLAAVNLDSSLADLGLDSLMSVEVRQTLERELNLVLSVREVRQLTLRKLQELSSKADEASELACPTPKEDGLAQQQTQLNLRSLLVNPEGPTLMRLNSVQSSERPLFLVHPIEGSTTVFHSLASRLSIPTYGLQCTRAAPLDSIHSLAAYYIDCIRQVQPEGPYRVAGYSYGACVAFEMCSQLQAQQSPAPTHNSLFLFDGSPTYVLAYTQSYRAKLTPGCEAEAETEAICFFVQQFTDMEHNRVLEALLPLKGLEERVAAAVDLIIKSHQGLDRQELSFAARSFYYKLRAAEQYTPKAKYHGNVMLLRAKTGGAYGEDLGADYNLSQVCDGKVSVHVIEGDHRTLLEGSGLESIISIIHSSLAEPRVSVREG
# Fatty acid synthase [6] = target: T3, Fatty acid synthase; assay: FAS thioesterase domain inhibitors, dose response, biochemical, kinetic fluorescence intensity (AID 624326);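 further: rate of fluorescence rise from hydrolysis of a fluorogenic O-methyl fluorescein ester substrate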
# [7] = target: T4, Heat shock factor protein 1 (Mus musculus, UniProt P38532); assay: HSF1 potentiators in luciferase reporter cells, confirmation, cell-based, NIH3T3, luminescence, dose retest (AID 435004);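 further: stress induced by proteasome inhibitor MG132 added 30 min after compound; luciferase reporter driven by HSF1 response element in NIH3T3 cells; actives raise luminescence as potentiators of the MG132 stress response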
# T4 sequence (P38532 whole entry): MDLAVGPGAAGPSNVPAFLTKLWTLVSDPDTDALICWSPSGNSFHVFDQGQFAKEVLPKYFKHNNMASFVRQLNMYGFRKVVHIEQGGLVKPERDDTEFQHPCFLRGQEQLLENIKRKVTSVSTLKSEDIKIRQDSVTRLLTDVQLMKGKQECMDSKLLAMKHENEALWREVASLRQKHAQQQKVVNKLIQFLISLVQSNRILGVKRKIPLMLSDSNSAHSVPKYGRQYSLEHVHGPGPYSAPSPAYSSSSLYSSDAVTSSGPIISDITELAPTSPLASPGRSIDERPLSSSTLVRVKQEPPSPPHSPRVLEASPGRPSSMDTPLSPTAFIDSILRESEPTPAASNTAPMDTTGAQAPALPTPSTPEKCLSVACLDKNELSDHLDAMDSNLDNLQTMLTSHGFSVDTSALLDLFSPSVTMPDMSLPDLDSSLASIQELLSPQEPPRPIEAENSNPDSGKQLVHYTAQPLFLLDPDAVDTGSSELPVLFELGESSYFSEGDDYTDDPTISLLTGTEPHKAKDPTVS
# Protein skinhead-1 = target: T5, Protein skinhead-1 (Caenorhabditis elegans, UniProt P34707)
# T5 sequence (P34707 whole entry): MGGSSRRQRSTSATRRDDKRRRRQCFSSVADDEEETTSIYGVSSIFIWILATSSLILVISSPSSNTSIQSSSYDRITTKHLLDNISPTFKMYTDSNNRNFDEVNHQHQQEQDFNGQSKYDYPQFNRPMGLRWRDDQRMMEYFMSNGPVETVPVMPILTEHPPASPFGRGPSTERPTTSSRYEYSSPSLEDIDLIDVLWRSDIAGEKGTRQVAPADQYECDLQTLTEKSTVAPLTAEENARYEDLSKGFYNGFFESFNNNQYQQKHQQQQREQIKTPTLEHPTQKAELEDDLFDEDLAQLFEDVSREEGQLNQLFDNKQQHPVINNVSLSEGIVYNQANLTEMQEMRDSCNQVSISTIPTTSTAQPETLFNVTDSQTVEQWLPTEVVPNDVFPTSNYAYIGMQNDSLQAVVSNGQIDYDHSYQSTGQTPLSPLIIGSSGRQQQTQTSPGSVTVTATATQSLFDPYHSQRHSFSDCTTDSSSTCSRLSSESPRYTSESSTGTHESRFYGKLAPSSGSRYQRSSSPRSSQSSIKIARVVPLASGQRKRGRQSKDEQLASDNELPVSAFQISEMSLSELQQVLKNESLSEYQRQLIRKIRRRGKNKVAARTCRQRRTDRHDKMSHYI
structure (smiles),measurement,setting,value
N#C/C(=C\c1cccc(NC(=O)c2ccccc2Cl)c1)C(=O)NCCc1ccccc1,AC50,[1],8.73 µM (active)
same,EC50,[2],15.1 µM (active)
same,EC50,Protein RecA,11.2 µM (active)
same,CC50,[3],15.6 µM (active)
same,EC50,[4],14.4 µM (active)
CCOC(=O)C1CCN(C(=O)c2cc3cc4ccc(C)cc4nc3o2)CC1,IC50,Fatty acid synthase [5],11.3 µM (active)
same,IC50,Fatty acid synthase [6],12.2 µM (active)
N#CC1(NC(=O)COC(=O)c2cc([N+](=O)[O-])ccc2N2CCCC2)CCCCC1,IC50,Fatty acid synthase [5],7.64 µM (active)
same,IC50,Fatty acid synthase [6],5.51 µM (active)
N#CC1=C(N)Oc2[nH]nc(-c3cccs3)c2C1c1ccsc1 (configuration not stated),AC50,[1],2.2 µM (active)
same,EC50,Protein RecA,0.672 µM (active)
CCOC(=O)c1c(C)n(-c2ccc(C)cc2)c2c(CC(C)=O)c(Br)c(OC)c(O)c12,EC50,[7],> 260 µM (inactive)
CN(Cc1ccccc1)c1nc(N)c([N+](=O)[O-])c(NCc2ccccc2)n1,EC50,[7],> 260 µM (inactive)
CCCCSc1nc(O)c(C(=O)OCC)cc1C#N,IC50,Protein skinhead-1,> 100 µM (inactive)
O=C(Oc1ccc(Br)cc1)C1CC(=O)N(c2ccc(F)cc2)C1 (configuration not stated),AC50,[1],7.12 µM (active)
same,EC50,Protein RecA,11.8 µM (active)
Clc1ccc(OCc2cnc(Cl)s2)cc1,IC50,Protein skinhead-1,13.2 µM (active)
CCCc1nn(C)c2c1C(c1cccnc1)C(C#N)=C(N)O2 (configuration not stated),AC50,[1],6.1 µM (active)
same,EC50,Protein RecA,3.83 µM (active)
COc1ccc(C(c2nnnn2-c2c(C)cccc2C)N2CCC(n3c(O)nc4ccccc43)CC2)cc1 (configuration not stated),IC50,Fatty acid synthase [5],16.5 µM (active)
same,IC50,Fatty acid synthase [6],16 µM (active)
COC(=O)c1cccc(CC2(C)C(=O)Nc3ccc(OC(F)(F)F)cc32)c1 (configuration not stated),IC50,Protein skinhead-1,88.5 µM (inactive)
COc1cccc(Sc2ccccc2/C=N/NC(N)=O)c1,EC50,[7],> 260 µM (inactive)
O=C(CN1C(=O)c2cccc([N+](=O)[O-])c2C1=O)N1CCc2ccccc2C1,IC50,Fatty acid synthase [6],9.41 µM (active)
C/C(CC(=O)N1CCN(C=O)CC1)=N\NC(=O)c1cccc([N+](=O)[O-])c1,AC50,[1],24.7 µM (active)
same,EC50,Protein RecA,1.99 µM (active)
Cc1cccc(/C=N\NC(=O)c2csnn2)c1,EC50,[7],> 260 µM (inconclusive)
